# Laboratory results reported in the supplement of paper PMC11208160.
# Assay: recombinant barcode read abundance after kanamycin selection (control-corrected) (log10(CPM+1)); higher = more efficient recombination; sequences stand for … in AGTGCAGAGAAAATCGGCCAGTTTTCTCTGCCTGCAGTCCGCATGCCGT…AGATTTATGCAGCGGACTGCCTTTCTCCCAAAGTGATAAACCGGACAGTATCATGGACCGGTTTTCCCGGTAATCCGTATTTGCAAGGTTGGTTTCACT; site = the 11-nt target
# Outline: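 Targets were screened in pooled form in E. coli against IS621 bridge RNA target-binding loops. Recombination efficiency is based on barcode counts at recombinant junctions in counts per million, averaged and corrected for the control. Numbers are shown as log10(CPM+1), with duplicate plates on chloramphenicol/ampicillin LB agar (control) or chloramphenicol/ampicillin/kanamycin with 0.1 mM IPTG.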
# 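Also: IS621 recombinase and bridge RNA in Escherichia coli cells.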
row,Sequence,recombinant barcode read abundance (log10)
1,TAGGGCGCTTGGGTTCTAACCTGTTGCCT (site TAAGGAGCTAG),0.204
2,TAGGGCGCTTGGGTTCTAACCTGTTGCCT (site TAGGGCGCTAG),1.01
3,TAGGTGCCTTGGGTTCTAACCTGTTGCAT (site TAGGTACCTAT),1.21
4,TAGGTGCCTTGGGTTCTAACCTGTTGCAT (site TAGGTCCCTAT),0.0424
5,TAGGTGCCTTGGGTTCTAACCTGTTGCAT (site TAGGTGCCTAT),1.79
6,TAGGTGCCTTGGGTTCTAACCTGTTGCAT (site TAGGTTCCTAT),0.167
7,TAGGTGCCTTGGGTTCTAACCTGTTGCGG (site TAGGTGACTCC),0.134
8,TAGGTGCCTTGGGTTCTAACCTGTTGCGG (site TAGGTGCCTCC),2.99
9,TAGTAAGCTTGGGTTCTAACCTGTTGCTG (site TAGTAAGCTCA),0.921
10,TAGTAAGCTTGGGTTCTAACCTGTTGCTG (site TAGTACGCTCT),0.142
11,TAGTACACTTGGGTTCTAACCTGTTGCAC (site ACCATGTCTCC),0.0598
12,TAGTACACTTGGGTTCTAACCTGTTGCAC (site TAGTACACTGT),1.55
13,TAGTACTCTTGGGTTCTAACCTGTTGCTA (site TAGTACTCTAA),0.0398
14,TAGTACTCTTGGGTTCTAACCTGTTGCTA (site TAGTACTCTCA),0.0859
15,TAGTACTCTTGGGTTCTAACCTGTTGCTA (site TAGTACTCTGA),0.164
16,TAGTACTCTTGGGTTCTAACCTGTTGCTA (site TAGTACTCTTA),1.58
17,TAGTACTCTTGGGTTCTAACCTGTTGCTT (site TAGTACTCTAA),1.14
18,TAGTACTCTTGGGTTCTAACCTGTTGCTT (site TAGTACTCTCA),0.0325
19,TAGTACTCTTGGGTTCTAACCTGTTGCTT (site TAGTACTCTGA),0.199
20,TAGTACTCTTGGGTTCTAACCTGTTGCTT (site TAGTACTCTTA),0.0259
21,TAGTATCCTTGGGTTCTAACCTGTTGCGT (site TAGTATCCTAC),1.87
22,TAGTATCCTTGGGTTCTAACCTGTTGCGT (site TAGTCTCCTAC),0.0759

row,Sequence,recombinant barcode read abundance (log10)
1,TAGTATCCTTGGGTTCTAACCTGTTGCGT (site TAGTGTCCTAC),0.0306
2,TAGTATCCTTGGGTTCTAACCTGTTGCGT (site TAGTTTCCTAC),0.21
3,TAGTCCACTTGGGTTCTAACCTGTTGCTA (site AAGTCCACTAA),0.239
4,TAGTCCACTTGGGTTCTAACCTGTTGCTA (site TAGTCCACTTA),1.15
5,TAGTCCGCTTGGGTTCTAACCTGTTGCCG (site TAGCCCTCTCG),0.214
6,TAGTCCGCTTGGGTTCTAACCTGTTGCCG (site TAGTCCGCTCG),0.446
7,TAGTCCTCTTGGGTTCTAACCTGTTGCTG (site TAGTCCTCTAA),0.048
8,TAGTCCTCTTGGGTTCTAACCTGTTGCTG (site TAGTCCTCTCA),1.02
9,TAGTCCTCTTGGGTTCTAACCTGTTGCTG (site TAGTCCTCTGA),0.14
10,TAGTCCTCTTGGGTTCTAACCTGTTGCTG (site TAGTCCTCTTA),0.185
11,TAGTCTTCTTGGGTTCTAACCTGTTGCGT (site AAGTATTCTAC),0.066
12,TAGTCTTCTTGGGTTCTAACCTGTTGCGT (site TAGTCTTCTAC),0.681
13,TAGTGGTCTTGGGTTCTAACCTGTTGCAT (site TAGTGGTCTAT),2.04
14,TAGTGGTCTTGGGTTCTAACCTGTTGCAT (site TAGTGGTCTTA),0.215
15,TAGTGTCCTTGGGTTCTAACCTGTTGCCA (site TAGTGTCCTTG),0.357
16,TAGTGTCCTTGGGTTCTAACCTGTTGCCA (site TGGTGTGCTTG),0.142
17,TAGTGTGCTTGGGTTCTAACCTGTTGCGT (site TAGTGTGCTAA),0.0341
18,TAGTGTGCTTGGGTTCTAACCTGTTGCGT (site TAGTGTGCTAC),1.66
19,TAGTGTTCTTGGGTTCTAACCTGTTGCAT (site TAGTGTCCTAT),0.109
20,TAGTGTTCTTGGGTTCTAACCTGTTGCAT (site TAGTGTTCTAT),0.918
21,TAGTTAGCTTGGGTTCTAACCTGTTGCCA (site TAGTTAGCTAG),0.0117
22,TAGTTAGCTTGGGTTCTAACCTGTTGCCA (site TAGTTAGCTCG),0.17

row,Sequence,recombinant barcode read abundance (log10)
1,TAGTTAGCTTGGGTTCTAACCTGTTGCCA (site TAGTTAGCTGG),0.0516
2,TAGTTAGCTTGGGTTCTAACCTGTTGCCA (site TAGTTAGCTTG),0.418
3,TAGTTCACTTGGGTTCTAACCTGTTGCAT (site TAGATCACTAT),0.0793
4,TAGTTCACTTGGGTTCTAACCTGTTGCAT (site TAGCTCACTAT),0.0603
5,TAGTTCACTTGGGTTCTAACCTGTTGCAT (site TAGGTCACTAT),0.159
6,TAGTTCACTTGGGTTCTAACCTGTTGCAT (site TAGTTCACTAT),0.382
7,TAGTTTACTTGGGTTCTAACCTGTTGCAG (site ACTCCAGCTAG),0.294
8,TAGTTTACTTGGGTTCTAACCTGTTGCAG (site TAGTTTACTCT),0.272
9,TAGTTTACTTGGGTTCTAACCTGTTGCCA (site TAGTTAACTTG),0.0268
10,TAGTTTACTTGGGTTCTAACCTGTTGCCA (site TAGTTCACTTG),0.109
11,TAGTTTACTTGGGTTCTAACCTGTTGCCA (site TAGTTGACTTG),0.0764
12,TAGTTTACTTGGGTTCTAACCTGTTGCCA (site TAGTTTACTTG),0.334
13,TATAAAACTTGGGTTCTAACCTGTTGCCT (site TATAAAACTAG),0.0338
14,TATAAAACTTGGGTTCTAACCTGTTGCCT (site TATACAACTAG),0.0401
15,TATAAAACTTGGGTTCTAACCTGTTGCCT (site TATAGAACTAG),0.0357
16,TATAAAACTTGGGTTCTAACCTGTTGCCT (site TATATAACTAG),0.697
17,TATAACACTTGGGTTCTAACCTGTTGCCG (site CTACTATCTGC),0.0288
18,TATAACACTTGGGTTCTAACCTGTTGCCG (site TATAACACTCG),0.246
19,TATAACTCTTGGGTTCTAACCTGTTGCCT (site AATAACTCTAG),0.0281
20,TATAACTCTTGGGTTCTAACCTGTTGCCT (site CATAACTCTAG),0.198
21,TATAACTCTTGGGTTCTAACCTGTTGCCT (site GATAACTCTAG),0.0978
22,TATAACTCTTGGGTTCTAACCTGTTGCCT (site TATAACTCTAG),0.549

row,Sequence,recombinant barcode read abundance (log10)
1,TATACTGCTTGGGTTCTAACCTGTTGCCT (site TATACTACTAG),0.0148
2,TATACTGCTTGGGTTCTAACCTGTTGCCT (site TATACTGCTAG),0.0304
3,TATAGAACTTGGGTTCTAACCTGTTGCCT (site TATAAAACTAG),0.119
4,TATAGAACTTGGGTTCTAACCTGTTGCCT (site TATACAACTAG),0.0987
5,TATAGAACTTGGGTTCTAACCTGTTGCCT (site TATAGAACTAG),0.192
6,TATAGAACTTGGGTTCTAACCTGTTGCCT (site TATATAACTAG),0.015
7,TATCCGACTTGGGTTCTAACCTGTTGCCC (site TATCCGACTAG),0.238
8,TATCCGACTTGGGTTCTAACCTGTTGCCC (site TATCCGACTCG),0.146
9,TATCCGACTTGGGTTCTAACCTGTTGCCC (site TATCCGACTGG),0.688
10,TATCCGACTTGGGTTCTAACCTGTTGCCC (site TATCCGACTTG),0.125
11,TATCGCACTTGGGTTCTAACCTGTTGCCT (site TATCGCACTAG),0.0277
12,TATCGCACTTGGGTTCTAACCTGTTGCCT (site TATGGGACTAG),0.0986
13,TATCGGGCTTGGGTTCTAACCTGTTGCAG (site ATGGACCCTGA),0.0316
14,TATCGGGCTTGGGTTCTAACCTGTTGCAG (site TATCGGGCTCT),1.57
15,TATCGTCCTTGGGTTCTAACCTGTTGCAT (site TACCGTCCTAT),0.0483
16,TATCGTCCTTGGGTTCTAACCTGTTGCAT (site TATCGTCCTAT),0.803
17,TATCTGACTTGGGTTCTAACCTGTTGCCT (site TATCAGACTTG),0.0204
18,TATCTGACTTGGGTTCTAACCTGTTGCCT (site TATCTGACTAG),0.202
19,TATGCTACTTGGGTTCTAACCTGTTGCAT (site AATGCTACTAT),1.03
20,TATGCTACTTGGGTTCTAACCTGTTGCAT (site TATGCTACTAT),0.371
